Read-outs that look alike come from different tables or passages of the source.
Target: SARS-COV-2 3CLpro/Mpro protease (Severe acute respiratory syndrome coronavirus 2 (2019-nCoV) (SARS-CoV-2), UniProt P0DTD1)
Experiment: Inhibitory effect on SARS-COV-2 3CLpro/Mpro protease by fluorescence resonance energy transfer
Assay type: biochemical
Conditions: activity intervals A-D
[1] = read-out: IC50 (nM), Inhibition on SARS-CoV-2 3CLpro/Mpro protease
[2] = IC50 (nM), Inhibition on SARS-CoV-2 3CLpro/Mpro protease

Compound | IC50 [1] | IC50 [2]
CNc1cncc(C(=O)N2CCC[C@@H](Nc3c(C(=O)N4CCC(N5C[C@@H](C)O[C@@H](C)C5)CC4)cc(Br)cc3[N+](=O)[O-])C2)c1 [Example 289] | 10 to 50 nM | –
CNc1cncc(C(=O)N2CCC[C@@H](Nc3c(C(=O)N4C[C@H]5C[C@@H]4CO5)cc(Br)cc3[N+](=O)[O-])C2)c1 [Example 290] | 10 to 50 nM | –
CNc1cncc(C(=O)N2CCC[C@@H](Nc3c(C(=O)N4C[C@@H]5C[C@H]4CO5)cc(Br)cc3[N+](=O)[O-])C2)c1 [Example 291] | 10 to 50 nM | –
CNc1cncc(C(=O)N2CCC[C@@H](Nc3c(C(=O)N4C5CCCC4CCC5)cc(Br)cc3[N+](=O)[O-])C2)c1 [Example 292] | – | 10 to 50 nM
CNc1cncc(C(=O)N2CCC[C@@H](Nc3c(C(=O)N4CCC5(CC4)CCC(C)(C)O5)cc(Br)cc3[N+](=O)[O-])C2)c1 [Example 293] | 10 to 50 nM | –
CNc1cncc(C(=O)N2CCC[C@@H](Nc3c(C(=O)N4CCOC5CC54)cc(Br)cc3[N+](=O)[O-])C2)c1 (stereo partly drawn) [Example 294] | 10 to 50 nM | –
O=C(c1cc(Br)cc([N+](=O)[O-])c1N[C@@H]1CCCN(C(=O)C2CNCC(F)(F)C2)C1)N1CCCCC1 (stereo partly drawn) [Example 296] | 10 to 50 nM | –
Cc1cc(C(=O)N2C[C@H](Nc3c(C(=O)NCc4ccc(Cl)cc4)cc(Br)cc3[N+](=O)[O-])C3(CC3)C2)cc(=O)[nH]1 [Example 297] | 10 to 50 nM | –
CNc1cncc(C(=O)N2CC(Nc3c(C(=O)N4CCN(CCOC)CC4)cc(Br)cc3[N+](=O)[O-])C(F)(F)C2)c1 (stereo not drawn) [Example 298] | 10 to 50 nM | –
Cc1cc(C(=O)N2C[C@H](Nc3c(C(=O)NC4CCCCC4)cc(Br)cc3[N+](=O)[O-])C3(CC3)C2)cc(=O)[nH]1 [Example 299] | 10 to 50 nM | –
Cc1cc(C(=O)N2CC(Nc3c(C(=O)N4CCN(C5CCCCC5)CC4)cc(Br)cc3[N+](=O)[O-])C(F)(F)C2)cc(=O)[nH]1 (stereo not drawn) [Example 300] | 10 to 50 nM | –
CNc1cncc(C(=O)NC[C@@H](COC)Nc2c(C(=O)N3CCCCC3)cc(Br)cc2[N+](=O)[O-])c1 [Example 301] | 50 to 100 nM | –
NC(=O)c1cncc(C(=O)N2CCC[C@@H](Nc3c(C(=O)N4CCCCC4)cc(Br)cc3[N+](=O)[O-])C2)c1 [Example 302] | 100 to 200 nM | –
CNc1cncc(C(=O)N2CCC[C@@H](Nc3c(C(=O)N4CC(O)CC(F)(F)C4)cc(Br)cc3[N+](=O)[O-])C2)c1 (stereo partly drawn) [Example 303] | 10 to 50 nM | –
CNc1cncc(C(=O)N2CCC[C@@H](Nc3c(C(=O)N4Cc5cnn(C)c5C4)cc(Br)cc3[N+](=O)[O-])C2)c1 [Example 304] | 50 to 100 nM | –
CNc1cncc(C(=O)N2CCC[C@@H](Nc3c(C(=O)N4CCCOCC4)cc(Br)cc3[N+](=O)[O-])C2)c1 [Example 305] | 10 to 50 nM | –
CNc1cncc(C(=O)N2C[C@H](Nc3c(C(=O)N4CCCCC4)cc(Br)cc3[N+](=O)[O-])[C@@H](OC)C2)c1 [Example 306] | 10 to 50 nM | –
CNc1cncc(C(=O)N2CCC[C@@H](Nc3c(C(=O)N4CC(F)(F)CC(F)(F)C4)cc(Br)cc3[N+](=O)[O-])C2)c1 [Example 307] | 10 to 50 nM | –
CNc1cncc(C(=O)N2C[C@H](Nc3c(C(=O)N4CCCCC4)cc(Br)cc3[N+](=O)[O-])[C@H](OC)C2)c1 [Example 308] | 10 to 50 nM | –

Compound | IC50 [1] | IC50 [2]
CNc1cncc(C(=O)N2CCC[C@@H](Nc3c(C(=O)N4CCc5oncc5C4)cc(Br)cc3[N+](=O)[O-])C2)c1 [Example 309] | 10 to 50 nM | –
CNc1cncc(C(=O)N2CCC[C@@H](Nc3c(C(=O)N4CCC=C(C)C4)cc(Br)cc3[N+](=O)[O-])C2)c1 [Example 310] | 10 to 50 nM | –
CNc1cncc(C(=O)N2CCC[C@@H](Nc3c(C(=O)N4CC=C(C)CC4)cc(Br)cc3[N+](=O)[O-])C2)c1 [Example 311] | 10 to 50 nM | –
CNc1cncc(C(=O)N2CCC[C@@H](Nc3c(C(=O)N4CCc5nn(C)cc5C4)cc(Br)cc3[N+](=O)[O-])C2)c1 [Example 313] | 10 to 50 nM | –
CNc1cncc(C(=O)N2CCC[C@@H](Nc3c(C(=O)N4CCn5cncc5C4)cc(Br)cc3[N+](=O)[O-])C2)c1 [Example 314] | 10 to 50 nM | –
CNc1cncc(C(=O)N2CCC[C@@H](Nc3c(C(=O)N4CCc5ncsc5C4)cc(Br)cc3[N+](=O)[O-])C2)c1 [Example 315] | 10 to 50 nM | –
CNc1cncc(C(=O)N2CCC[C@@H](Nc3c(C(=O)N4CCc5oc(C)nc5C4)cc(Br)cc3[N+](=O)[O-])C2)c1 [Example 316] | 10 to 50 nM | –
CNc1cncc(C(=O)N2CCC[C@@H](Nc3c(C(=O)N4CCC(C5CCOCC5)CC4)cc(Br)cc3[N+](=O)[O-])C2)c1 [Example 317] | 10 to 50 nM | –
CNc1cncc(C(=O)N2C[C@H](Nc3c(C(=O)N4CCN(CCOC)CC4)cc(Br)cc3[N+](=O)[O-])C(C)(O)C2)c1 (stereo partly drawn) [Example 318] | 10 to 50 nM | –
CNc1cncc(C(=O)N2CCC[C@@H](Nc3c(C(=O)N4CCCCC4)cc(Br)cc3C(F)(F)F)C2)c1 [Example 319] | 50 to 100 nM | –
CNc1cncc(C(=O)N2C[C@H](Nc3c(C(=O)N4CCO[C@H](C)C4)cc(Br)cc3[N+](=O)[O-])[C@@H](OC)C2)c1 [Example 322] | 10 to 50 nM | –
CNc1cncc(C(=O)N2CCC[C@@H](Nc3c(C(=O)N4CCn5cccc5C4)cc(Br)cc3[N+](=O)[O-])C2)c1 [Example 323] | 10 to 50 nM | –
C=C1CNCC(C(=O)N2CCC[C@@H](Nc3c(C(=O)N4CCCCC4)cc(Br)cc3[N+](=O)[O-])C2)C1 (stereo partly drawn) [Example 324] | 100 to 200 nM | –
C[C@@H]1CN(C(=O)c2cc(Br)cc([N+](=O)[O-])c2N[C@@H]2CCCN(C(=O)[C@H]3CNCC(F)(F)C3)C2)C[C@H](C)O1 [Example 325] | 10 to 50 nM | –
CNc1ccc2c(C(=O)N3CCC[C@@H](Nc4c(C(=O)N5C[C@@H](C)O[C@@H](C)C5)cc(Br)cc4[N+](=O)[O-])C3)cncc2c1 [Example 326] | 10 to 50 nM | –
O=C(c1cc(Br)cc([N+](=O)[O-])c1N[C@@H]1CCCN(C(=O)[C@H]2CNCC(F)(F)C2)C1)N1CCOC2(CC2)C1 [Example 328] | 10 to 50 nM | –
C[C@@H]1CN(C(=O)c2cc(Br)cc([N+](=O)[O-])c2N[C@@H]2CCCN(C(=O)[C@H]3CNCC(F)(F)C3)C2)CCO1 [Example 329] | 10 to 50 nM | –
O=C(c1cc(Br)cc([N+](=O)[O-])c1N[C@@H]1CCCN(C(=O)[C@H]2CNCC(F)(F)C2)C1)N1CCO[C@H](C(F)(F)F)C1 [Example 330] | 10 to 50 nM | –
O=C(c1cc(Br)cc([N+](=O)[O-])c1N[C@@H]1CCCN(C(=O)[C@H]2CNCC(F)(F)C2)C1)N1CC2CCC(C1)O2 [Example 332] | 10 to 50 nM | –

Compound | IC50 [1] | IC50 [2]
O=C(c1cc(Br)cc([N+](=O)[O-])c1N[C@@H]1CCCN(C(=O)[C@H]2CNCC(F)(F)C2)C1)N1CCC2(CCCO2)CC1 [Example 333] | 10 to 50 nM | –
CNc1cncc(C(=O)N2CCC[C@@H](Nc3c(C(=O)N4CCCOC(C)C4)cc(Br)cc3[N+](=O)[O-])C2)c1 (stereo partly drawn) [Example 334] | 10 to 50 nM | –
CNc1cncc(C(=O)N2CCC[C@@H](Nc3c(C(=O)N4CC5C=CC(C4)N5)cc(Br)cc3[N+](=O)[O-])C2)c1 [Example 335] | – | 10 to 50 nM
CNc1cncc(C(=O)N2CCC[C@@H](Nc3c(C(=O)N4CC=CCC4)cc(Br)cc3[N+](=O)[O-])C2)c1 [Example 336, (R)-(5-Bromo-2-((1-(5-(methylamino)nicotinoyl)piperidin-3-yl)amino)-3-nitrophenyl)(3,6-dihydropyridin-1 (2H)-yl) methanone] | 10 to 50 nM | –
CNc1cncc(C(=O)N2CCC[C@@H](Nc3c(C(=O)N4CC=C(F)CC4)cc(Br)cc3[N+](=O)[O-])C2)c1 [Example 337, (R)-(5-Bromo-2-((1-(5-(methylamino)nicotinoyl)piperidin-3-yl)amino)-3-nitrophenyl)(4-fluoro-3,6-dihydropyridin-1 (2H)-yl)methanone] | 10 to 50 nM | –
CNc1cncc(C(=O)N2CCC[C@@H](Nc3c(C(=O)N4CCC5(CC4)CNCC(F)(F)O5)cc(Br)cc3[N+](=O)[O-])C2)c1 [Example 338] | 10 to 50 nM | –
CNc1cncc(C(=O)N2CCC[C@@H](Nc3c(C(=O)N4CCC5(CC4)COC(C)(C)C5)cc(Br)cc3[N+](=O)[O-])C2)c1 [Example 339] | 10 to 50 nM | –
CNc1cncc(C(=O)N2CCC[C@@H](Nc3c(C(=O)N4CCOC(C)(C)C4)cc(Br)cc3[N+](=O)[O-])C2)c1 [Example 340] | 10 to 50 nM | –
CNc1cncc(C(=O)N2CCC[C@@H](Nc3c(C(=O)N4CCO[C@H](CCl)C4)cc(Br)cc3[N+](=O)[O-])C2)c1 [Example 341] | 10 to 50 nM | –
CNc1cncc(C(=O)N2CCC[C@@H](Nc3c(C(=O)N4CCO[C@H](C5CC5)C4)cc(Br)cc3[N+](=O)[O-])C2)c1 [Example 342] | 10 to 50 nM | –
CNc1ccc2c(C(=O)N3CCC[C@@H](Nc4c(C(=O)N5C[C@@H](C)O[C@@H](C)C5)cc(Br)cc4[N+](=O)[O-])C3)cc(=O)[nH]c2c1 [Example 343] | 10 to 50 nM | –
C=C[C@@H]1CN(C(=O)c2cc(Br)cc([N+](=O)[O-])c2N[C@@H]2CCCN(C(=O)c3cncc(NC)c3)C2)CCO1 [Example 344] | 10 to 50 nM | –
CNc1cncc(C(=O)N2CCC[C@@H](Nc3c(C(=O)N4CC(C)O[C@H](C(F)(F)F)C4)cc(Br)cc3[N+](=O)[O-])C2)c1 (stereo partly drawn) [Example 345] | 10 to 50 nM | –
C#C[C@@H]1CN(C(=O)c2cc(Br)cc([N+](=O)[O-])c2N[C@@H]2CCCN(C(=O)c3cncc(NC)c3)C2)CCO1 [Example 346] | 10 to 50 nM | –
[2H]C([2H])([2H])Nc1cncc(C(=O)N2CCC[C@@H](Nc3c(C(=O)N4C[C@@H](C)O[C@@H](C)C4)cc(Br)cc3[N+](=O)[O-])C2)c1 [Example 347] | 10 to 50 nM | –
C[C@@H]1CN(C(=O)c2cc(Br)cc([N+](=O)[O-])c2N[C@@H]2CCCN(C(=O)[C@@H]3CCCOC3)C2)C[C@H](C)O1 [Example 348] | 10 to 50 nM | –
CNc1cncc(C(=O)N2CCC[C@@H](Nc3c(C(=O)N4C[C@@H](C)O[C@@H](C(F)(F)F)C4)cc(Br)cc3[N+](=O)[O-])C2)c1 [Example 349] | 10 to 50 nM | –
CNc1cncc(C(=O)N2CCC[C@@H](Nc3c(C(=O)N4C[C@H](C)O[C@@H](C(F)(F)F)C4)cc(Br)cc3[N+](=O)[O-])C2)c1 [Example 350] | 50 to 100 nM | –
CNc1cncc(C(=O)N2CCC[C@@H](Nc3c(C(=O)N4CCOC5(CC5)C4)cc(Br)cc3[N+](=O)[O-])C2)c1 [Example 351] | 10 to 50 nM | –
